The values that follow come from paper PMC4229146, “An Odorant-Binding Protein Is Abundantly Expressed in the Nose and in the Seminal Fluid of the Rabbit” (PLoS ONE, 2014).

Experiment [1] concerns the target T1, rabOBP3.
T1 construct: native mature protein (161 amino acids) purified from rabbit seminal fluid, delipidated with dichloromethane
The experiment is described as follows: competitive displacement of fluorescent probe 1-NPN. Type of experiment: binding, Oryctolagus cuniculus.

Experiment [2] has as its target T1, rabOBP3. Briefly: fluorescent probe titration (direct fluorescence binding). Also on record: species or system Oryctolagus cuniculus.

Structures are written as SMILES.

The compound `CCCCCC/C=C/C=O` [2-nonenal] returned a Kd at rabOBP3 [1] of 7.8 µM.

In turn, `c1ccc(Nc2cccc3ccccc23)cc1` [N-phenyl-1-naphthylamine] showed a Kd at rabOBP3 [2] of 3.8 µM.

On rabOBP3 [1], `CC(C)=CCC/C(C)=C/CO` [geraniol] registered a Kd of 11.2 µM.

On rabOBP3 [1], `O=c1c(O)c(-c2ccc(O)c(O)c2)oc2cc(O)cc(O)c12` [quercetin] had an equilibrium dissociation constant (Kd) of 2.2 µM.
